In patent US9259401B2 (priority 2011, dated 2016):
Read-outs that look alike come from different tables or passages of the source.

Legend:
[1] = tested on: monoamine oxidase enzymes; details: mice; cited from earlier work
[2] = tested on: Norepinephrine; experiment: Biological amine levels by HPLC-ECD after 45 min: norepinephrine; assay type: in vivo, mice
Protocol: (§1) Test Substances: […] Animals: Male Laca mice. Test Procedures: Animals were sacrificed after 45 min of drug administration similar to the time period of behavioral observations. HPLC-ECD detector: Mobile phase—Phosphate buffer: […] • Column—ODS-3 C-18 column (250×4.6 mm I.D.; 5 μm particle size)

[3] = tested on: Dopamine; experiment: Biological amine levels by HPLC-ECD after 45 min: dopamine; assay type: in vivo, mice
Protocol: as §1

[4] = tested on: hippocampal neurogenesis; details: 10 and 20 mg/kg, P.O., chronically stressed rats; cited from earlier work
[5] = tested on: 5-hydroxytryptamine; experiment: Biological amine levels by HPLC-ECD after 45 min: 5-hydroxytryptamine; assay type: in vivo, mice
Protocol: as §1

[6] = tested on: serotonin (5-HT) as well as dopamine levels; details: mice; cited from earlier work
[7] = tested on: mice; details: cited from earlier work
[8] = tested on: AC activity and c-AMP levels; details: platelet and various brain regions, CUMS rats; cited from earlier work
[9] = Comparative bioavailability study, curcumin in plasma by HPLC; assay type: in vivo, human
Protocol: The bioavailability study was conducted at Amala Cancer Institute, Thrissur, Kerala on a request from the applicant. Twelve healthy subjects were recruited for the purpose of the study. […] The study design chosen was a balanced, open label, two-treatment, two-period, single dose, bioavailability study.
12 Subject were recruited for the study and were asked to avoid consumption of food containing rich turmeric powder or extract for 24 hours preceding each period. […] The following supplements were used for the purpose of the study:
Each of the supplements were administered with 240 ml water in each period.
The study design is open label, two-treatment, two-period, single dose, bioavailability study. […] Subjects were asked to avoid consumption of food containing rich turmeric powder or extract for 24 hours preceding each period. […] There was a washout period of at least 2 weeks between the doses.
Blood was drawn from each subject just prior to dosing and at 1, 2, 4, 6, 8, and 24 hours post-dose. The total blood loss for each subject was approximately 70 ml and there were totally 14 blood samples of 5 ml each time point throughout the study.
The primary efficacy variables were measured in this study were Cmax, AUCO-t and AUCO-∞ and the secondary efficacy variable were as follows Tmax, T½ and Kel. The statistical evaluation was done by Winnonlin Software 5.0.1 version. […] Tmax and T½ were also be recorded and compared for the two products.
Preparation of Sample (Spiked with Standard Solution E): The frozen plasma samples were allowed to attain the room temperature. 1000 μl of the plasma sample was pipetted out and spiked with 100 μl of spiking standard solution E. This solution was vortex for 1 minute and 3.0 ml ethyl acetate (HPLC Grade) was added to the above solutions. The solution was vortex again for 1 minute with the aid of cyclomixer and allowed to settle down at room temperature.
1.5 ml of the upper ethyl acetate layer was pipetted out and evaporated to dryness using vacuum. The dried sample was dissolved in 600 μl of methanol (HPLC Grade) using vortex mixer. This solution was filtered by 0.2 micron membrane filter paper. 100 μl of these filtered solution was injected in HPLC (Waters Alliance System with 2996 PDA detector in isocratic mode). The column used was LiChrospher 100 RP-18 (250×4.6 mm 5 μM particle size) with methanol as the mobile phase and the detection wavelength was 420 nm. To identify and quantized curcuminoids in plasma the chromatographic peaks were compared with standard solution.

[10] = dose 100 mg/kg vs fluoxetine 10 mg/kg
[11] = dose 100 mg/kg, sacrificed after 45 min, n = 5

COc1cc(C=CC(=O)CC(=O)C=Cc2ccc(O)c(OC)c2)ccc1O [Curcumin, 1,7-bis(4-hydroxy-3-methoxyphenyl)-1,6-heptadien-3,5-dione]
Monoamine oxidase enzymes [1]: inhibited the monoamine oxidase enzymes
Norepinephrine % increase w.r.t Control ([2]; dose 100 mg/kg): 67.90%
Norepinephrine % increase w.r.t Fluoxetine [2, 10]: 19.18%
Norepinephrine (ng/mg tissue) [2, 11]: 4.97 ± 0.33a ng/mg tissue
Dopamine % increase w.r.t Control ([3]; dose 100 mg/kg): −20.25%
Dopamine % increase w.r.t Fluoxetine [3, 10]: −21.77%
Dopamine (ng/mg tissue) [3, 11]: 4.33 ± 0.58 ng/mg tissue
Hippocampal neurogenesis [4]: increased hippocampal neurogenesis
5-hydroxytryptamine % increase w.r.t Control ([5]; dose 100 mg/kg): 6.80%
5-hydroxytryptamine % increase w.r.t Fluoxetine [5, 10]: −21.77%
5-hydroxytryptamine (ng/mg tissue) [5, 11]: 4.24 ± 0.56 ng/mg tissue
Serotonin (5-HT) and dopamine levels [6]: increases serotonin (5-HT) as well as dopamine levels
Immobility period [7]: inhibited the immobility period
AC activity and c-AMP levels [8]: enhanced AC activity and c-AMP levels
AUCINF, Max ([9]; 1 gm curcuminoids oral): 87.74 ng·h/mL
AUCINF, Min ([9]; 1 gm curcuminoids oral): 76.09 ng·h/mL
AUCT, Max ([9]; 1 gm curcuminoids oral): 198.27 ng·h/mL
AUCT, Min ([9]; 1 gm curcuminoids oral): 31.24 ng·h/mL
Cmax, Max ([9]; 1 gm curcuminoids oral): 36.11 ng/mL
Cmax, Min ([9]; 1 gm curcuminoids oral): 2.48 ng/mL
Thalf, Geometric Mean ([9]; 1 gm curcuminoids oral): 7.066 h
Thalf, Max ([9]; 1 gm curcuminoids oral): 11.39 h
Thalf, Mean ([9]; 1 gm curcuminoids oral): 7.516 h
Thalf, Median ([9]; 1 gm curcuminoids oral): 5.95 h
Thalf, Min ([9]; 1 gm curcuminoids oral): 5.21 h
Tmax, Max ([9]; 1 gm curcuminoids oral): 24.00 h
Tmax, Min ([9]; 1 gm curcuminoids oral): 1.00 h
AUCINF, Mean (mean AUC) ([9]; 1 gm curcuminoids oral, listed as Curcumin Extract Powder (min 95% Curcuminoids)): 80.433 ng·h/mL
AUC(0-inf) ([9]; human, plasma, po, 1 gm, 1 gm curcuminoids oral, read-out: AUCINF, Geometric Mean): 80.3 ng·h/mL
AUC(0-inf) ([9]; human, plasma, po, 1 gm, 1 gm curcuminoids oral, read-out: AUCINF, Mean (mean AUC)): 80.4 ng·h/mL
AUC(0-inf) ([9]; human, plasma, po, 1 gm, 1 gm curcuminoids oral, read-out: AUCINF, Median): 77.5 ng·h/mL
AUC(0-t) ([9]; human, plasma, po, 1 gm, 1 gm curcuminoids oral, read-out: AUCT, Geometric Mean): 81 ng·h/mL
AUC(0-t) ([9]; human, plasma, po, 1 gm, 1 gm curcuminoids oral, read-out: AUCT, Mean): 98.8 ng·h/mL
AUC(0-t) ([9]; human, plasma, po, 1 gm, 1 gm curcuminoids oral, read-out: AUCT, Median): 77.8 ng·h/mL
Cmax ([9]; human, plasma, po, 1 gm, 1 gm curcuminoids oral, read-out: Cmax, Geometric Mean): 10.5 ng/mL
Cmax ([9]; human, plasma, po, 1 gm, 1 gm curcuminoids oral, read-out: Cmax, Mean): 13.3 ng/mL
Cmax ([9]; human, plasma, po, 1 gm, 1 gm curcuminoids oral, read-out: Cmax, Median): 10.3 ng/mL
Tmax ([9]; human, plasma, po, 1 gm, 1 gm curcuminoids oral, read-out: Tmax, Geometric Mean): 4.06 h
Tmax ([9]; human, plasma, po, 1 gm, 1 gm curcuminoids oral, read-out: Tmax, Mean): 8.25 h
Tmax ([9]; human, plasma, po, 1 gm, 1 gm curcuminoids oral, read-out: Tmax, Median): 3 h
AUC(0-inf) ([9]; human, plasma, po, 1 gm, individual subjects, 1 gm curcuminoids oral, read-out: AUCINF): 76.1 ng·h/mL
concentration at 0 hr ([9]; human, plasma, po, 1 gm, time 0 hr (prior to dosing), 1 gm curcuminoids oral, read-out: Mean plasma concentration): 0 ng/mL
concentration at 0 hr ([9]; human, plasma, po, 1 gm, time 0.00 hr (prior to dosing), individual subjects, single oral dose equivalent to 1 gm curcuminoids, read-out: Individual plasma concentration): 0 ng/mL
concentration at 0 hr ([9]; human, plasma, po, 1 gm, time 0 hr, 1 gm curcuminoids oral, read-out: Geometric Mean plasma concentration): 0 ng/mL
concentration at 0 hr ([9]; human, plasma, po, 1 gm, time 0 hr, 1 gm curcuminoids oral, read-out: Max plasma concentration): 0 ng/mL
concentration at 0 hr ([9]; human, plasma, po, 1 gm, time 0 hr, 1 gm curcuminoids oral, read-out: Median plasma concentration): 0 ng/mL
concentration at 0 hr ([9]; human, plasma, po, 1 gm, time 0 hr, 1 gm curcuminoids oral, read-out: Min plasma concentration): 0 ng/mL
concentration at 1 hr ([9]; human, plasma, po, 1 gm, time 1 hr, 1 gm curcuminoids oral, read-out: Geometric Mean plasma concentration): 1.58 ng/mL
